Experimental data taken from patent publication US7166622B2, “Substituted phenylsulfonamide inhibitors of beta amyloid production” (Wyeth, priority 2002, dated 2007).

Assays:
CHO-K1 cells = assay: Toxicity in RRA (loss of luciferase signal); conditions: toxicity = loss of signal (<0.75 fold increase)
Experimental: The beta amyloid inhibitory activity of the compounds of the present invention was determined using the Repressor Release Assay (RRA).
“Fold Increase” refers to the amount of luciferase activity (measured in relative light units) over diluent control. “SEM” refers to the standard error of the mean for fold increase.

beta amyloid production = assay: Repressor Release Assay (RRA); assay type: cell-based; conditions: for fold induction at 3 µg/mL: Conc 3 μg/ml; for APPI % of Example #98: relative to Example 98
Outline: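 Read-out is luciferase luminescence (RLU) after 36-48 h duplicate compound exposure of transfected CHO-K1 cells. These cells carry transiently introduced APP-lacI and pRSVO-luc DNA. Diluent control was 25 mM Hepes/1% DMSO; toxicity recorded as binary score (1 non-toxic, 0 toxic).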

[1] = Conc 20 μg/ml, luciferase activity over diluent control, read-out: APPI Fold Increase
[2] = luciferase activity over diluent control, read-out: APPI Fold Increase
[3] = Conc 20 μg/ml, luciferase activity over diluent control
[4] = Conc 10 μg/ml, luciferase activity over diluent control, read-out: APPI Fold Increase

Structure (SMILES) | (%)APPI Toxicity (CHO-K1 cells; Conc 20 μg/ml) | fold induction at 20 µg/mL (beta amyloid production; [1]) | further results
CC[C@](C)(CO)NS(=O)(=O)c1ccc(Cl)cc1 [Example 97, 4-chloro-N-[(1R)-1-(hydroxymethyl)-1-methylpropyl]benzenesulfonamide] | 1 (1=non-toxic) | 1.5 | 
CC[C@H](C)[C@@H](CO)NS(=O)(=O)c1ccc(Br)cc1 [Example 98, 4-bromo-N-[(1S,2S)-1-(hydroxymethyl)-2-methylbutyl]-benzenesulfonamide] | 1 (1=non-toxic) |  | (%)APPI Toxicity (CHO-K1 cells; Conc 3 μg/ml): 1 (1=non-toxic); (%)APPI Toxicity (CHO-K1 cells; Conc 10 μg/ml): 1 (1=non-toxic); fold induction at 3 µg/mL (beta amyloid production; [2]): 1.79
CCCCC(CO)NS(=O)(=O)c1ccc(Br)cc1 (centres unmarked) [Example 99, 4-bromo-N-[1-(hydroxymethyl)pentyl]benzenesulfonamide] | 1 (1=non-toxic) | 1.7 | 
C[C@@H](NS(=O)(=O)c1ccc(Br)cc1)[C@@H](O)c1ccccc1 [Example 100, 4-bromo-N-[(1R,2S)-2-hydroxy-1-methyl-2-phenylethyl] benzenesulfonamide] | 1 (1=non-toxic) |  | APPI Fold Increase (beta amyloid production; [3]): 1.6 fold; APPI % of Example #98 (beta amyloid production; Conc 20 μg/ml): 41%
O=S(=O)(N[C@H](CO)c1ccccc1)c1ccc(Br)cc1 [Example 101, 4-bromo-N-[(1S)-2-hydroxy-1-phenylethyl]benzenesulfonamide] | 1 (1=non-toxic) | 1.6 | 
CC(C)C[C@H](CO)NS(=O)(=O)c1ccc(Br)cc1 [Example 102, 4-bromo-N-[(1R)-1-(hydroxymethyl)-3-methylbutyl]benzenesulfonamide] | 1 (1=non-toxic) | 1.5 | 
O=S(=O)(NC1(CO)CCCC1)c1ccc(Cl)cc1 [Example 103, 4-chloro-N-[1-(hydroxymethyl)cyclopentyl]benzenesulfonamide] | 1 (1=non-toxic) | 2.6 | 
CCCC(CO)NS(=O)(=O)c1ccc(Br)cc1 (centres unmarked) [Example 104, 4-bromo-N-[1-(hydroxymethyl)butyl]benzenesulfonamide] | 1 (1=non-toxic) | 1.5 | 
CCCC(CO)NS(=O)(=O)c1cccc(Cl)c1 (centres unmarked) [Example 105, 3-chloro-N-[1-(hydroxymethyl)butyl]benzenesulfonamide] |  |  | (%)APPI Toxicity (CHO-K1 cells; Conc 10 μg/ml): 1 (1=non-toxic); fold induction at 10 µg/mL (beta amyloid production; [4]): 1.54
O=S(=O)(N[C@H](CO)CC1CCCCC1)c1cccc(Cl)c1 [Example 106, 3-chloro-N-[(1S)-2-cyclohexyl-1-(hydroxymethyl)ethyl]benzenesulfonamide] | 1 (1=non-toxic) | 1.6 | 
CSCC[C@H](CO)NS(=O)(=O)c1cccc(Cl)c1 [Example 107, 3-chloro-N-[(1R)-1-(hydroxymethyl)-3-(methylthio)propyl]benzenesulfonamide] |  |  | (%)APPI Toxicity (CHO-K1 cells; Conc 1 μg/ml): 1 (1=non-toxic); fold induction at 1 µg/mL (beta amyloid production; Conc 1 μg/ml, luciferase activity over diluent control, read-out: APPI Fold Increase): 2.35
CC[C@@H](CO)NS(=O)(=O)c1cccc(Cl)c1 [Example 108, 3-chloro-N-[(1S)-1-(hydroxymethyl)propyl]benzene sulfonamide] |  |  | (%)APPI Toxicity (CHO-K1 cells; Conc 3 μg/ml): 1 (1=non-toxic); fold induction at 3 µg/mL (beta amyloid production; [2]): 1.66
CC(C)C[C@@H](CO)NS(=O)(=O)c1ccccc1F [Example 109, 2-fluoro-N-[(1S)-1-(hydroxymethyl)-3-methylbutyl]benzenesulfonamide] | 1 (1=non-toxic) | 1.9 | 
CCCCC(CO)NS(=O)(=O)c1ccccc1F (centres unmarked) [Example 110, 2-fluoro-N-[1-(hydroxymethyl)pentyl] benzenesulfonamide] | 1 (1=non-toxic) |  | APPI Fold Increase (beta amyloid production; [3]): 1.7 fold; APPI % of Example #98 (beta amyloid production; Conc 20 μg/ml): 46.5%
C[C@H](NS(=O)(=O)c1ccccc1F)[C@@H](O)c1ccccc1 [Example 111, 2-fluoro-N-[(1 S,2 S)-2-hydroxy-1-methyl-2-phenylethyl] benzenesulfonamide] | 1 (1=non-toxic) |  | APPI Fold Increase (beta amyloid production; [3]): 1.7 fold; APPI % of Example #98 (beta amyloid production; Conc 20 μg/ml): 47.8%
O=S(=O)(N[C@H](CO)c1ccccc1)c1ccccc1F [Example 112, 2-fluoro-N-[(1S)-2-hydroxy-1-phenylethyl]benzene sulfonamide] | 1 (1=non-toxic) | 1.8 | 
CC(C)C[C@H](CO)NS(=O)(=O)c1ccccc1F [Example 113, 2-fluoro-N-[(1R)-1-(hydroxymethyl)-3-methylbutyl]benzenesulfonamide] | 1 (1=non-toxic) | 1.6 | 

Structure (SMILES) | (%)APPI Toxicity (CHO-K1 cells; Conc 20 μg/ml) | fold induction at 20 µg/mL (beta amyloid production; [1]) | further results
O=S(=O)(NC1(CO)CCCC1)c1ccccc1F [Example 114, 2-fluoro-N-[1-(hydroxymethyl)cyclopentyl]benzenesulfonamide] | 1 (1=non-toxic) | 1.5 | 
O=S(=O)(N[C@H](CO)CC1CCCCC1)c1ccccc1F [Example 115, N-[(1S)-2-cyclohexyl-1-(hydroxymethyl)ethyl]-2-fluorobenzenesulfonamide] | 1 (1=non-toxic) | 1.8 | 
CSc1ccc([C@H](O)[C@H](CO)NS(=O)(=O)c2ccccc2F)cc1 [Example 116, 2-fluoro-N-{(1S,2S)-2-hydroxy-1-(hydroxymethyl)-2-[4-(methylthio)phenyl]ethyl}benzenesulfonamide] | 1 (1=non-toxic) | 1.6 | 
O=S(=O)(N[C@H](CO)Cc1ccccc1)c1ccccc1F [Example 118, N-[(1S)-1-benzyl-2-hydroxyethyl]-2-fluorobenzenesulfonamide] | 1 (1=non-toxic) | 1.6 | 
CC(C)[C@@H](CO)NS(=O)(=O)c1ccccc1F [Example 119, 2-fluoro-N-[(1S)-1-(hydroxymethyl)-2-methylpropyl]benzenesulfonamide] | 1 (1=non-toxic) | 1.5 | 
O=S(=O)(NC1(CO)CCCCC1)c1ccc(Br)cc1 [Example 120, 4-Bromo-N-[1-(hydroxymethyl)-cyclohexyl]-benzenesulfonamide] | 1 (1=non-toxic) | 5 | 
O=S(=O)(NC1(CO)CC2CCC1C2)c1ccc(Br)cc1 (centres unmarked) [Example 121, 4-bromo-N-[2-(hydroxymethyl)bicyclo[2.2.1.]hept-2-yl]benzenesulfonamide] | 1 (1=non-toxic) |  | APPI Fold Increase (beta amyloid production; [3]): 1.7 fold; APPI % of Example #98 (beta amyloid production; Conc 20 μg/ml): 45.1%
O=S(=O)(NC1(CO)CCc2ccccc21)c1ccc(Br)cc1 (centres unmarked) [Example 122, 4-bromo-N-[1-(hydroxymethyl)-2,3-dihydro-1H-inden-1-yl]benzenesulfonamide] | 1 (1=non-toxic) | 1.5 | 
O=S(=O)(NC1(CO)CCCCC1)c1ccc(Cl)cc1 [Example 123, 4-chloro-N-[1-(hydroxymethyl)cyclohexyl]benzenesulfonamide] | 1 (1=non-toxic) | 4.4 | 
O=S(=O)(NC1(CO)CCc2ccccc21)c1ccc(Cl)cc1 (centres unmarked) [Example 124, 4-chloro-N-[1-(hydroxymethyl)-2,3-dihydro-1H-inden-1-yl]benzenesulfonamide] | 1 (1=non-toxic) | 2 | 
O=S(=O)(NC(CO)(c1ccccc1)C1CCC1)c1ccc(Cl)cc1 (centres unmarked) [Example 125, 4-chloro-N-(1-cyclobutyl-2-hydroxy-1-phenylethyl)benzenesulfonamide] | 1 (1=non-toxic) | 1.8 | 
CC[C@H](C)[C@H](NS(=O)(=O)c1ccc(F)cc1)C(C)O (stereo partly drawn) [Example 126, 4-fluoro-N-[(1S,2S)-1-(1-hydroxyethyl)-2-methylbutyl]benzenesulfonamide] |  |  | (%)APPI Toxicity (CHO-K1 cells; Conc 3 μg/ml): 1 (1=non-toxic); (%)APPI Toxicity (CHO-K1 cells; Conc 10 μg/ml): 1 (1=non-toxic); fold induction at 3 µg/mL (beta amyloid production; [2]): 1.54; fold induction at 10 µg/mL (beta amyloid production; [4]): 1.52
CC[C@H](C)[C@H](NS(=O)(=O)c1ccc(F)cc1)C(O)C1CCCC1 (stereo partly drawn) [Example 127, N-{(1S,2S)-1-[cyclopentyl(hydroxy)methyl]-2-methylbutyl}-4-fluorobenzenesulfonamide] |  |  | (%)APPI Toxicity (CHO-K1 cells; Conc 10 μg/ml): 1 (1=non-toxic); fold induction at 10 µg/mL (beta amyloid production; [4]): 2.97
CCCCC(O)[C@@H](NS(=O)(=O)c1ccc(F)cc1)[C@@H](C)CC (stereo partly drawn) [Example 130, 4-fluoro-N-{(1S)-2-hydroxy-1-[(1S)-1-methylpropyl]hexyl}benzenesulfonamide] |  |  | (%)APPI Toxicity (CHO-K1 cells; Conc 10 μg/ml): 1 (1=non-toxic); fold induction at 10 µg/mL (beta amyloid production; [4]): 2.4
CC[C@H](C)[C@H](NS(=O)(=O)c1ccc(F)cc1)C(O)c1ccccc1C (stereo partly drawn) [Example 131, 4-fluoro-N{(1S,2S)-1-[hydroxy-(2-methylphenyl)methyl]-2-methylbutyl}benzenesulfonamide] |  |  | (%)APPI Toxicity (CHO-K1 cells; Conc 10 μg/ml): 1 (1=non-toxic); APPI Fold Increase (beta amyloid production; Conc 10 μg/ml, luciferase activity over diluent control): 1.65 fold; APPI % of Example #98 (beta amyloid production; Conc 10 μg/ml): 64.57%
CC[C@H](C)[C@H](NS(=O)(=O)c1ccc(F)cc1)C(O)C(C)(C)C (stereo partly drawn) [Example 132, 4-fluoro-N-{(1S)-2-hydroxy-3,3-dimethyl-1-[(1S)-1-methylpropyl]butyl}benzenesulfonamide] |  |  | (%)APPI Toxicity (CHO-K1 cells; Conc 10 μg/ml): 1 (1=non-toxic); fold induction at 10 µg/mL (beta amyloid production; [4]): 1.54
C=CC(O)[C@@H](NS(=O)(=O)c1ccc(F)cc1)[C@@H](C)CC (stereo partly drawn) [Example 133, 4-fluoro-N-{(1S)-2-hydroxy-1-[(1S)-1-methylpropyl]-3-butenyl}benzenesulfonamide] |  |  | (%)APPI Toxicity (CHO-K1 cells; Conc 10 μg/ml): 1 (1=non-toxic); fold induction at 10 µg/mL (beta amyloid production; [4]): 1.79
